Results on 24 compounds are retold here after patent US4490527A, “Benzo-fused heterocyclic anti-ulcer agents” (American Home Products Corporation, priority 1983, dated 1984).

Where a name gives a salt, the structure may show the parent alone. Read-outs that look alike come from different tables or passages of the source. Some results are limits rather than exact numbers.

Assay [1] concerns gastric acid secretion. The assay can be described thus: gastric secretion in the rat, modified Shay procedure of pylorus ligation. In kind it is in vivo. The following applies: intraduodenal, 4 h, i.d., four hours after ligation, read-out: % Inhibition (of acid output). The protocol: The procedure for testing gastric secretion in the rat, a modification of the procedure of Shay et al., Gastroenterology, 26, 906-13 (1954) is carried out as follows: Male Charles River rats weighing 200-300 grams are deprived of food but not water for 24 hours prior to use. Water is, however, withheld during the experiment. The rats are weighed, anesthetized, and the pylorus ligated according to the method of Shay et al. Treatment or vehicle control is then administered interduodenally (i.d.). Rats are housed 2/cage and sacrificed with CO2 four hours after ligation. The stomachs are removed, rinsed, and contents emptied into a graduated centrifuge tube. The tubes are centrifuged for 20 minutes at 2,000 RPM and the volume of gastric juice recorded. Any samples obviously contaminated by feces, food or hemolysis are eliminated. An aliquot of each is frozen for later analysis of Na^+, K^+ and Cl^- concentration. The pH is measured and 1 ml. of gastric juice is titrated with 0.1N NaOH to a pH of 7.0-7.4. Titratable acid output is calculated in microequivalents and the percent inhibition of acid output is calculated as follows: [formula]

In assay [2] the test system is gastric acid secretion. The assay can be described thus: inhibition of secretion of acidic gastric juice in dogs (Pavlov gastric pouch, fed). As to conditions: orally dosed; for ED50: Canis lupus familiaris, po, fed thirty minutes later, read-out: ID50 (dose at which there is obtained a 50% inhibition of the total gastric acid output). Type of assay: in vivo, dog (beagle). The protocol: The procedure for testing the ability of the compounds of the invention to inhibit the secretion of acidic gastric juice in dogs is as follows: A female pure bred beagle (7-10 kg) having Pavlov gastric pouches is fasted overnight with water ad lib. The animal is orally dosed and thirty minutes later it is fed to induce gastric acid secretions. Gastric acid samples are then collected every 15 minutes. The volume of each sample is measured and aliquots are titrated to neutrality with 0.1N NaOH to determine acid concentration.

For the next assay, the target named is H2 histamine receptors (Cavia porcellus, UniProt P47747). The assay can be described thus: cell-based. Also noted: species or system guinea pig. As to conditions: vs histamine dose-response, 32° C., pH 7.4.
Sequence of H2 histamine receptors (P47747 whole entry): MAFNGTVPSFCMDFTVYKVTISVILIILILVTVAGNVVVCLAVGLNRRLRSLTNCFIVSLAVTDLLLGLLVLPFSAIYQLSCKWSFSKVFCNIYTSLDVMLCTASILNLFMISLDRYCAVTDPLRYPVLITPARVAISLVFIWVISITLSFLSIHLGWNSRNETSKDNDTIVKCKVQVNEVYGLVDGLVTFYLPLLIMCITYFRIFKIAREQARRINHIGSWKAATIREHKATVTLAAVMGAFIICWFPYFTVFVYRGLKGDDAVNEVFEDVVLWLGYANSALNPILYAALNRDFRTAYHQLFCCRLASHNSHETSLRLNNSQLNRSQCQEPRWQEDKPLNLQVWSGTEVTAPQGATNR
[3] abbreviates: 30 min after addition, results of three experiments, read-out: pA2 Value (apparent dissociation constant of the H2 antagonist) (converted).
The mark [4] stands for this setting: marked *, result of only one experiment, read-out: KB value.

Method for H2 histamine receptors: The guinea pig heart atrium test is carried out as follows:
A guinea pig right atrium is suspended at 1 g. tension (isometric) in a thermostatically controlled (32° C.) tissue bath (10 ml) containing oxygenated (95% O2 ; 5% CO2) Krebs-Haenseleit buffer (pH 7.4). The tissue is allowed to stabilize over 1 hour. Individual contractions are recorded with a force-displacement transducer through a strain gauge coupler. A control dose-response curve to histamine in the above described tissue bath is obtained after which the tissue is washed 3 times and allowed to re-equilibrate to basal rate. The test compound is added to the tissue bath at the desired final concentration. Thirty minutes after addition of the compound, a fresh histamine dose response curve is again obtained. Then the response to histamine in the presence of antagonist is compared to the histamine control response. This procedure is repeated, using fresh tissues, for each concentration of antagonist tested. […] Cimetidine is used as the standard for this test.

Take `CN(C)Cc1ccc(CSCCNC2=NS(=O)(=O)c3ccccc32)o1` [Example 1, N-[2-[[[5-[(dimethylamino)methyl]2-furanyl]methyl]thio]ethyl]-1,2-benzisothiazol-3-amine 1,1-dioxide]: in the assay with gastric acid secretion [1], the inhibition in vivo at 4 mg/kg came out at 79%. Further, in the assay on gastric acid secretion [2], the ED50 amounted to 0.8 mg/kg. Besides, the Kb at H2 histamine receptors (setting [3]) is 100 nM.

As to `O=S1(=O)N=C(NCCCOc2cccc(CN3CCOCC3)c2)c2ccccc21` [Example 16, N-[3-[3-(4-morpholinylmethyl)phenoxy]propyl]-1,2-benzisothiazol-3-amine 1,1-dioxide, hydrochloride], in the assay on gastric acid secretion [1], the inhibition in vivo at 32 mg/kg was 39%. The “pA2 Value (apparent dissociation constant of the H2 antagonist)” value on H2 histamine receptors (30 min after addition, results of three experiments) is less than 7.0.

Regarding `CCCN(CCC)Cc1cccc(OCCCNC2=NS(=O)(=O)c3ccccc32)c1.Cl` [Example 18, N-[3-[3-[(dipropylamino)methyl]phenoxy]propyl]-1,2-benzisothiazol-3-amine 1,1-dioxide, hydrochloride], in the assay with gastric acid secretion [1], the inhibition in vivo at 8 mg/kg turned out to be 67%, the inhibition in vivo at 16 mg/kg was 89% and the inhibition in vivo at 32 mg/kg came out at 90%. Besides, the ED50 with gastric acid secretion [2] is 1.2 mg/kg. For the same compound, the Kb on H2 histamine receptors (setting [3]) is 15.8 nM.

For `CCN(CC)Cc1cccc(OCCCNC2=NS(=O)(=O)c3ccccc32)c1` [Example 19, N-[3-[3-[(diethylamino)methyl]phenoxy]propyl]-1,2-benzisothiazol-3-amine 1 ,1-dioxide, hydrochloride], in the assay with gastric acid secretion [1], the inhibition in vivo at 16 mg/kg turned out to be 52% and the inhibition in vivo at 32 mg/kg worked out at 78%. Further, the Kb at H2 histamine receptors (setting [3]) is 200 nM.

As to `O=S1(=O)N=C(NCCCOc2cccc(CN3CCCC3)c2)c2ccccc21` [Example 20, N-[3-[3-(1-pyrrolidinylmethyl)phenoxy]propyl]-1,2-benzisothiazol-3-amine 1 ,1-dioxide, hydrochloride, 1/3 hydrate], in the assay with gastric acid secretion [1] (Dose 2 mg/kg), the inhibition in vivo at 2 mg/kg is 50%. Besides, the ED50 in the assay with gastric acid secretion [2] was found to be 1.4 mg/kg. Besides, the Kb on H2 histamine receptors (setting [3]) is 25.1 nM.

Take `CN(C)Cc1cccc(OCCCNC2=NS(=O)(=O)c3ccccc32)c1` [Example 21, N-[3-[3-[(dimethylamino)methyl]phenoxy]propyl]-1,2-benzisothiazol-3-amine 1,1-dioxide, hydrochloride, hemihydrate]: the inhibition in vivo at 32 mg/kg in the assay with gastric acid secretion [1] is 72%. Further, the Kb at H2 histamine receptors (setting [3]) is 79.4 nM.

Turning to `CCCCN(CCCC)Cc1cccc(OCCCNC2=NS(=O)(=O)c3ccccc32)c1` [Example 22, N-[3-[3-[(dibutylamino)methyl]phenoxy]propyl]-1,2-benzisothiazol-3-amine 1 ,1-dioxide, hydrochloride, hemihydrate], in the assay with gastric acid secretion [1], the inhibition in vivo at 4 mg/kg was 42%, the inhibition in vivo at 8 mg/kg was found to be 62%, the inhibition in vivo at 16 mg/kg was 53% and the inhibition in vivo at 32 mg/kg amounted to 68%. Further, the Kb at H2 histamine receptors (setting [3]) is 6.31 nM.

As for `Cl.O=S1(=O)N=C(NCCCOc2cccc(CN3CCCCCC3)c2)c2ccccc21` [Example 24, N-[3-[3-[(hexahydro-1H-azepin-1-yl)methyl]phenoxy]-propyl]-1,2-benzisothiazol-3-amine 1,1-dioxide, hydrochloride], the inhibition in vivo at 8 mg/kg in the assay on gastric acid secretion [1] came out at 50%. Further, the ED50 in the assay on gastric acid secretion [2] was 1.2 mg/kg. Moreover, the Kb on H2 histamine receptors (setting [3]) was 5.75 nM.

On to `O=S1(=O)N=C(NCCCOc2cccc(CN3CCSC3)c2)c2ccccc21` [Example 25, N-[3-[3-[(3-thiazolidinyl)methyl]phenoxy]propyl]-1,2-benzisothiazol-3-amine 1,1-dioxide, hydrochloride], for which the inhibition in vivo at 4 mg/kg with gastric acid secretion [1] is 48%. Moreover, the Kb on H2 histamine receptors (setting [3]) was 40.7 nM.

Take `O=S1(=O)N=C(NCCCOc2cccc(CNC3CCCC3)c2)c2ccccc21` [Example 28, N-[3-[3-[(cyclopentylamino)methyl]phenoxy]propyl]-1,2-benzisothiazol-3-amine 1,1-dioxide, hydrochloride]: in the assay with gastric acid secretion [1], the inhibition in vivo at 16 mg/kg was 75% and the inhibition in vivo at 32 mg/kg was determined as 49%. Moreover, the Kb on H2 histamine receptors (setting [3]) is 25.1 nM.

In the case of `O=S1(=O)N=C(NCCCOc2cccc(CNCc3ccco3)c2)c2ccccc21` [Example 29, N-[3-[3-[[[(2-furanyl)methyl]amino]methyl]phenoxy]-propyl]-1,2-benzisothiazol-3amine 1,1-dioxide, hydrochloride], the inhibition in vivo at 32 mg/kg in the assay on gastric acid secretion [1] was determined as 50%. The Kb on H2 histamine receptors (setting [3]) was 69.2 nM.

Turning to `O=S1(=O)N=C(NCCCOc2cccc(CNCc3ccccc3)c2)c2ccccc21` [Example 30, N-[3-[3-[(benzylamino)methyl]phenoxy]propyl]-1,2-benzisothiazol-3-amine1,1-dioxide, hydrochloride, quarter hydrate], the Kb on H2 histamine receptors (setting [3]) was 63.1 nM.

With `CC(C)CN(Cc1cccc(OCCCNC2=NS(=O)(=O)c3ccccc32)c1)CC(C)C` [Example 31, N-[3-[3-[[bis(2-methylpropyl)amino]methyl]phenoxy]-propyl]-1,2-benzisothiazol-3-amine 1,1-dioxide], the Kb on H2 histamine receptors (setting [3]) is 63.1 nM.

On to `CCCCNCc1cccc(OCCCNC2=NS(=O)(=O)c3ccccc32)c1` [Example 32, N-[3-[3-[(butylamino)methyl]phenoxy]propyl]-1,2-benzisothiazol-3-amine 1,1-dioxide, hydrochloride, hemihydrate], for which, on H2 histamine receptors (setting [3]), the Kb was 63.1 nM.

For the compound `CCCCCN(C)Cc1cccc(OCCCNC2=NS(=O)(=O)c3ccccc32)c1` [Example 34, N-[3-[3-[(methylpentylamino)methyl]phenoxy]propyl]-1,2-benzisothiazol-3-amine 1,1-dioxide], the Kb at H2 histamine receptors (setting [3]) was 10 nM.

Consider `CCCCN(CCC)Cc1cccc(OCCCNC2=NS(=O)(=O)c3ccccc32)c1` [Example 35, N-[3-[3-[(butylpropylamino)methyl]phenoxy]propyl]-1,2-benzisothiazol-3-amine 1,1-dioxide], for which, in the assay on gastric acid secretion [1], the inhibition in vivo at 32 mg/kg was found to be 55%. For the same compound, the Kb at H2 histamine receptors (setting [4]) was found to be 14 nM.

As for `CCCCN(C)Cc1cccc(OCCCNC2=NS(=O)(=O)c3ccccc32)c1` [Example 36, N-[3-[3-[(butylmethylamino)methyl]phenoxy]propyl]-1,2-benzisothiazol-3-amine 1,1-dioxide], the inhibition in vivo at 32 mg/kg with gastric acid secretion [1] is 84%. Moreover, on H2 histamine receptors (setting [4]), the Kb turned out to be 48 nM.

As for `CCCCCN(CCCCC)Cc1cccc(OCCCNC2=NS(=O)(=O)c3ccccc32)c1` [Example 37, N-[3-[3-[(dipentylamino)methyl]phenoxy]propyl]-1,2-benzisothiazol-3-amine 1,1-dioxide], the inhibition in vivo at 32 mg/kg in the assay on gastric acid secretion [1] worked out at 38%.

Turning to `Cl.O=S1(=O)N=C(NCCCOc2ccc(CN3CCCCC3)cc2)c2ccccc21` [Example 38, N-[3-[4-[(1-piperidinyl)methyl]phenoxy]propyl]-1,2-benzisothiazol-3-amine 1,1-dioxide, hydrochloride], in the assay with gastric acid secretion [1], the inhibition in vivo at 1 mg/kg was found to be 34%, the inhibition in vivo at 4 mg/kg stood at 52% and the inhibition in vivo at 16 mg/kg was found to be 93%. The ED50 with gastric acid secretion [2] turned out to be 2 mg/kg. For the same compound, the Kb on H2 histamine receptors (setting [3]) is 23.4 nM.

Consider `CN(C)Cc1ccc(CSCCNC2=NS(=O)(=O)c3cscc32)o1` [Example 39, N-[2-[[[5-[(Dimethylamino)Methyl]-2-Furanyl]Methyl]Thio]Ethyl]Thieno[3,4-d]Isothiazol-3-Amine-1,1-Dioxide], for which, in the assay on gastric acid secretion [1], the inhibition in vivo at 16 mg/kg came to 87%. On H2 histamine receptors (setting [4]), the Kb was determined as 1 nM.

In the case of `NC(N)=Nc1nc(CSCCNC2=NS(=O)(=O)c3cscc32)cs1` [Example 40, [4-[[[2-[(Thieno[3,4-d]Isothiazol-3-yl)Amino]Ethyl]Thio]Methyl]-2-Thiazolyl]Guanidine-S',S'-Dioxide], the Kb at H2 histamine receptors (setting [4]) was 100 nM.

For `O=S1(=O)N=C(NCCCOc2cccc(CN3CCCCC3)c2)c2cscc21` [Example 41], in the assay with gastric acid secretion [1] (Dose 0.5 mg/kg), the inhibition in vivo at 0.5 mg/kg is 37%. Further, in the assay with gastric acid secretion [1], the inhibition in vivo at 1 mg/kg was found to be 84%, the inhibition in vivo at 4 mg/kg was determined as 87% and the inhibition in vivo at 8 mg/kg was determined as 91%. In the assay on gastric acid secretion [2], the ED50 worked out at 0.25 mg/kg. Further, in the assay on gastric acid secretion [2] (dose of 1 mg/kg), the “reduced gastric acid secretions” value is reported as 82%. Moreover, at H2 histamine receptors (setting [4]), the Kb was 5.94 nM.

In the case of `CNC(=C[N+](=O)[O-])NCCSCc1ccc(CN(C)C)o1` [ranitidine, reference compound], in the assay on gastric acid secretion [1], the inhibition in vivo at 4 mg/kg came out at 43%. The ED50 in the assay with gastric acid secretion [2] came out at 2.3 mg/kg.

As for `CNC(=NC#N)NCCSCc1csc(N=C(N)N)n1` [tiotidine, reference compound], the inhibition in vivo at 4 mg/kg with gastric acid secretion [1] stood at 16%.
